# According to patent US20200071316A1, “ACTIVATORS OF THE RETINOIC ACID INDUCIBLE GENE "RIG-I" PATHWAY AND METHODS OF USE THEREOF” (Kineta Immuno-Oncology LLC, priority 2018, published 2020):
# Marks after values point to notes of the source that are not given here.
# Key:
# [1] = tested on: IRF3 signaling pathway (IRF-inducible ISG54 promotor) in THP1-Lucia ISG cells; experiment: THP1-Lucia ISG reporter assay: induction of IRF3-dependent luciferase activity; format: cell-based; conditions: Homo sapiens, 10 μM compound, PMA-differentiated cells, 18 h after stimulation, read-out: THP1 ISG: fold increase of IRF3-dependent luciferase activity over background
# Protocol: The compounds were evaluated in the THP1-Lucia™ ISG (interferon stimulated genes) reporter assay to determine if the compounds activate the IRF3 signaling pathway. The THP1-Lucia™ cells (InvivoGen) express the secreted luciferase (Lucia) reporter gene under the control of an IRF-inducible promotor. The reporter cell line was developed from human monocytic leukemia THP-1 cells.
# (§1) The promotor was comprised of five IFN-stimulated response elements (ISRE) fused to an ISG54 minimal promotor which is unresponsive to NF-kB or AP-1 pathways. […] The IRF3-deficient THP1-Lucia™ ISG IRF3 −/− reporter cell line was generated by CRISPR technology from the parent THP1-Lucia™ ISG reporter cell line.
# (§2) 5 THP1-Lucia™ ISG cells and IRF3-deficient THP1-Lucia™ ISG IRF3 −/− cells were differentiated with PMA (100 ng/ml) and stimulated with compounds at the indicated concentrations (5 to 20 μM), positive control, or not treated (background). Luciferase secretion was quantified using the QUANTI-Luc luciferase assay system (InvivoGen) 18 h after stimulation. Data are shown as fold increase luciferase activity over background in Table 7 and represent the IRF3-dependent ISG54 promotor activity by the THP1-Lucia™ ISG cells in response to compounds. […] The fold increase of compounds (10 μM, *20 μM, **5 μM) induced IRF3 dependent luciferase activity is indicated as follows: “−” indicates less than 2.4 fold increase; “+” indicates a 2.4-4.9 fold increase; “++” indicates a 5-9.9 fold increase; “+++” indicates a 10-19 fold increase; “++++” indicates a 20-39 fold increase; “+++++” indicates greater than or equal to 40 fold increase.
# [2] = tested on: THP1-Lucia ISG IRF3 −/− cells; experiment: IRF3-deficient THP1-Lucia ISG IRF3 −/− reporter assay (counter-screen); format: cell-based; conditions: Homo sapiens, 18 h after stimulation, read-out: THP1 ISG IRF3 −/−: fold increase of luciferase activity over background; for fold induction at 10 µM: 10 μM compound
# Protocol: as §1, §2
# [3] = tested on: CXCL10 secretion by CT26 cells; experiment: RIG-I dependent CXCL10 secretion by CT26 colon carcinoma cells (ELISA); format: cell-based, murine; conditions: 24 h
# Protocol: (§3) The CT26 murine colon carcinoma cell line (ATCC) was used to evaluate the induction of CXCL10 secretion. CXCL10 is an important chemokine in tumor immune biology that recruits tumor-specific T cells to the tumor. To confirm that compound-mediated CXCL10 production was RIG-I specific, RIG-I deficient CT2-RIG-1−/− cells were generated by Kineta using CRISPR technology.
# (§4) CT26 cells were seeded at a density of 1×10^4 cells per well on a 96-well tissue culture plate in 100 μL of cell culture and cells were incubated at 37° C. and 5% CO2 for 24 hr. Next, CT26 cells were treated with compounds at the indicated concentrations. CXCL10 was quantified by ELISA from supernatants taken 24 h after compound stimulation by use of the CXCL10 DuoSet ELISA kit (Cat # DY466, R&D, Minneapolis, Minn., USA) according to the manufacturer's instructions.
# (§5) CXCL10 secretion by CT26 cells in response to compounds (in an amount of 5 to 20 μM) of the present disclosure is shown in Table 8. The compound-induced CXCL10 production was RIG-I dependent, since none of the compounds mediated CXCL10 secretion in RIG-I deficient CT26 RIG-1−/− cells. The compounds (10 μM, *20 μM, **5 μM) are indicated in the table as follows: “−” indicates less than 100 pg/mL; “+” indicates 100-199 pg/mL; “++” indicates 200-399 pg/mL; “+++” indicates 400-799 pg/mL; “++++” indicates 800 to 1599 pg/mL; “+++++” indicates greater than or equal to 1600 pg/ml.
# [4] = tested on: RIG-I deficient CT26 RIG-1−/− cells; experiment: CXCL10 secretion in RIG-I deficient CT26 RIG-1−/− cells (ELISA); format: cell-based, murine; conditions: 24 h
# Protocol: as §3, §4, §5
SMILES,fold induction at 10 µM [1],fold induction at 10 µM [2],CXCL10 secretion by CT26 cells ([3]; 10 μM compound),CXCL10 secretion by CT26 RIG-I −/− cells ([4]; 10 μM compound),fold induction at 5 µM ([2]; 5 μM compound (**)),CXCL10 secretion by CT26 cells ([3]; 5 μM compound (**)),CXCL10 secretion by CT26 RIG-I −/− cells ([4]; 5 μM compound (**)),CXCL10 secretion by CT26 cells ([3]; 20 μM compound (*)),CXCL10 secretion by CT26 RIG-I −/− cells ([4]; 20 μM compound (*))
"O=C(Nc1nc2ccc(OCC(F)(F)F)cc2s1)c1cc2ccccc2cc1OCCCCN1CCOCC1 [Example 58, 3-[4-(morpholin-4-yl)butoxy]-N-[6-(2,2,2-trifluoroethoxy)-1,3-benzothiazol-2-yl]naphthalene-2-carboxamide]",5 to 9.9,< 2.4,++ (“++” indicates 200-399 pg/mL),− (“−” indicates less than 100 pg/mL),,,,,
"O=C(Nc1nc2ccc(S(=O)(=O)N3CC4(COC4)C3)cc2s1)c1cc2ccccc2cc1OCCN1CCOCC1 [Example 65, 3-[2-(morpholin-4-yl)ethoxy]-N-(6-{2-oxa-6-azaspiro[3.3]heptane-6-sulfonyl}-1,3-benzothiazol-2-yl)naphthalene-2-carboxamide]",2.4 to 4.9,< 2.4,+ (“+” indicates 100-199 pg/mL),− (“−” indicates less than 100 pg/mL),,,,,
"O=C(Nc1nc2ccc(S(=O)(=O)N3CCOCC3)cc2s1)c1ccc2ccccc2c1 [Example 3, N-[6-(morpholine-4-sulfonyl)-1,3-benzothiazol-2-yl]naphthalene-2-carboxamide]",10 to 19,< 2.4,+++ (“+++” indicates 400-799 pg/mL),− (“−” indicates less than 100 pg/mL),,,,,
"O=C(Nc1nc2ccc(-c3nc4ccccc4[nH]3)cc2s1)c1ccc2ccccc2c1 [Example 10, N-[6-(1H-1,3-benzodiazol-2-yl)-1,3-benzothiazol-2-yl]naphthalene-2-carboxamide]",5 to 9.9,< 2.4,+++ (“+++” indicates 400-799 pg/mL),− (“−” indicates less than 100 pg/mL),,,,,
"O=C(Nc1nc2ccc(S(=O)(=O)N3CC[C@@H](O)C3)cc2s1)c1cc2ccccc2cc1OCCCCN1CCOCC1 [Example 78, N-(6-{[(3R)-3-hydroxypyrrolidin-1-yl]sulfonyl}-1,3-benzothiazol-2-yl)-3-[4-(morpholin-4-yl)butoxy]naphthalene-2-carboxamide]",≥ 40,,+++++ (“+++++” indicates greater than or equal to 1600 pg/ml),− (“−” indicates less than 100 pg/mL),< 2.4,,,,
"O=C(Nc1nc2ccc(S(=O)(=O)N3CCCC3)cc2s1)c1ccc(-c2cccnc2)cc1 [Example 53, 4-(pyridin-3-yl)-N-[6-(pyrrolidine-1-sulfonyl)-1,3-benzothiazol-2-yl]benzamide]",2.4 to 4.9,< 2.4,− (“−” indicates less than 100 pg/mL),− (“−” indicates less than 100 pg/mL),,,,,
"CS(=O)(=O)Nc1ccc2nc(NC(=O)c3cc4ccccc4cc3OCCCCN3CCOCC3)sc2c1 [Example 27, N-(6-methanesulfonamido-1,3-benzothiazol-2-yl)-3-[4-(morpholin-4-yl)butoxy]naphthalene-2-carboxamide]",20 to 39,< 2.4,+++ (“+++” indicates 400-799 pg/mL),− (“−” indicates less than 100 pg/mL),,,,,
"O=C(Nc1nc2ccc(S(=O)(=O)N3CC[C@@H](O)C3)cc2s1)c1cc2ccccc2cc1OCCN1CCOCC1 [Example 77, N-(6-{[(3R)-3-hydroxypyrrolidin-1-yl]sulfonyl}-1,3-benzothiazol-2-yl)-3-[2-(morpholin-4-yl)ethoxy]naphthalene-2-carboxamide]",2.4 to 4.9,< 2.4,+ (“+” indicates 100-199 pg/mL),− (“−” indicates less than 100 pg/mL),,,,,
"O=C(Nc1nc2ccc(S(=O)(=O)N3CCC3)cc2s1)c1ccc(-c2ccccc2)cc1OCCN1CCOCC1 [Example 60, N-[6-(azetidine-1-sulfonyl)-1,3-benzothiazol-2-yl]-3-[2-(morpholin-4-yl)ethoxy]-[1,1′-biphenyl]-4-carboxamide]",20 to 39,< 2.4,++++ (“++++” indicates 800 to 1599 pg/mL),− (“−” indicates less than 100 pg/mL),,,,,
"O=C(Nc1nc2cccc(NC(=S)Nc3ccccc3)c2s1)c1cc2ccccc2cc1OCCCCN1CCOCC1 [Example 33, 3-[4-(morpholin-4-yl)butoxy]-N-{7-[(phenylcarbamothioyl)amino]-1,3-benzothiazol-2-yl}naphthalene-2-carboxamide]",2.4 to 4.9,< 2.4,,,,++** (“++” indicates 200-399 pg/mL),−** (“−” indicates less than 100 pg/mL),,
"O=C(Nc1nc2ccc(S(=O)(=O)N3CCOCC3)cc2s1)c1cc2ccccc2cc1OCCCCN1CCOCC1 [Example 17, 3-[4-(morpholin-4-yl)butoxy]-N-[6-(morpholine-4-sulfonyl)-1,3-benzothiazol-2-yl]naphthalene-2-carboxamide]",10 to 19,< 2.4,+++ (“+++” indicates 400-799 pg/mL),− (“−” indicates less than 100 pg/mL),,,,,
"CS(=O)(=O)c1ccc2nc(NC(=O)c3cc4ccccc4cc3OCCN3CCOCC3)sc2c1 [Example 44, N-(6-methanesulfonyl-1,3-benzothiazol-2-yl)-3-[2-(morpholin-4-yl)ethoxy]naphthalene-2-carboxamide]",< 2.4,< 2.4,,,,++** (“++” indicates 200-399 pg/mL),−** (“−” indicates less than 100 pg/mL),,
O=C(Nc1cc2ccc(S(=O)(=O)N3CCCC3)cc2s1)c1cc2c(cc1OCCN1CCOCC1)OCO2 [Example 75],5 to 9.9,< 2.4,++ (“++” indicates 200-399 pg/mL),− (“−” indicates less than 100 pg/mL),,,,,
"O=C(Nc1nc2ccc(C(=O)Nc3c(Cl)cccc3Cl)cc2s1)c1ccc2ccccc2c1 [Example 13, N-(2,6-dichlorophenyl)-2-(naphthalene-2-amido)-1,3-benzothiazole-6-carboxaraide]",20 to 39,< 2.4,+++++ (“+++++” indicates greater than or equal to 1600 pg/ml),− (“−” indicates less than 100 pg/mL),,,,,
"Cn1c(C(=O)Nc2nc3ccc(S(=O)(=O)N4CCCC4)cc3s2)cc2ccccc21 [Example 52, 1-methyl-N-[6-(pyrrolidine-1-sulfonyl)-1,3-benzothiazol-2-yl]-1H-indole-2-carboxamide]",10 to 19,< 2.4,,,,,,+* (“+” indicates 100-199 pg/mL),−* (“−” indicates less than 100 pg/mL)
"O=C(Nc1cc2ccc(S(=O)(=O)N3CCCC3)cc2s1)c1cc2ccsc2cc1OCCN1CCOCC1 [Example 76, 6-[2-(morpholin-4-yl)ethoxy]-N-[6-(pyrrolidine-1-sulfonyl)-1-benzothiophen-2-yl]-1-benzothiophene-5-carboxamide]",20 to 39,< 2.4,++++ (“++++” indicates 800 to 1599 pg/mL),− (“−” indicates less than 100 pg/mL),,,,,
